In assay [1] the target is farnesyl protein transferase (Homo sapiens, UniProt P49354+P49356). As to the kind of experiment: FPT IC50, inhibition of farnesyl protein transferase, in vitro enzyme assay. In kind it is biochemical. As to conditions: range stated jointly for the listed compounds. On the procedure: (§1) FPT IC50 (inhibition of farnesyl protein transferase, in vitro enzyme assay) and COS Cell IC50 (Cell-Based Assay) were determined following the assay procedures described in WO 95/10516, published April 20, 1995. GGPT IC50 (inhibition of geranylgeranyl protein transferase, in vitro enzyme assay), Cell Mat Assay, and anti-tumor activity (in vivo anti-tumor studies) could be determined by the assay procedures described in WO 95/ 10516. The disclosure of WO 95/ 10516 is incorporated herein by reference thereto.

In assay [2] the test system is COS Cell. As to the kind of experiment: COS Cell IC50 (Cell-Based Assay). The following applies: range stated jointly for the listed compounds. As to the method: as §1
The test system of assay [3] is Human tumor cells. As to the kind of experiment: Soft Agar Assay (anchorage-independent growth). In kind it is cell-based. The following applies: range stated jointly for the listed compounds, upper end printed as >500. On the procedure: Anchorage-independent growth is a characteristic of tumorigenic cell lines. Human tumor cells are suspended in growth medium containing 0.3% agarose and an indicated concentration of a farnesyl transferase inhibitor. The solution is overlayed onto growth medium solidified with 0.6% agarose containing the same concentration of farnesyl transferase inhibitor as the top layer. After the top layer is solidified, plates are incubated for 10-16 days at 37°C under 5% CO2 to allow colony outgrowth. After incubation, the colonies are stained by overlaying the agar with a solution of MTT (3-[4,5-dimethylthiazol-2-yl]-2,5-diphenyltetrazolium bromide, Thiazolyl blue) (1 mg/mL in PBS). Colonies can be counted and the IC50's can be determined.

[4] abbreviates: H-ras, read-out: FPT IC50 (H-ras).
Setting [5] is: K-ras, read-out: FPT IC50 (K-ras).

Structures are written as SMILES. Read-outs that look alike come from different tables or passages of the source.

A word on the IC50: it is the point on the concentration scale where inhibition reaches its midpoint. As for `O=C(CC1CCN(c2nnnn2-c2ccccc2)CC1)N1CCC([C@H]2c3ncc(Br)cc3CCc3cc(Cl)cc(Br)c32)CC1` [Compound 2.0], the IC50 in assay [1] (setting [4]) lay within 4.6 to 140 nM.
Turning to `O=C(CC1CCN(c2nccs2)CC1)N1CCC([C@H]2c3ncc(Br)cc3CCc3cc(Cl)cc(Br)c32)CC1` [Compound 3.0], the IC50 in assay [1] (setting [4]) lay in the range of 4.6 to 140 nM.
`O=C(CC1CCN(c2nc3ccccc3o2)CC1)N1CCC([C@H]2c3ncc(Br)cc3CCc3cc(Cl)cc(Br)c32)CC1` [Compound 4.0]: the IC50 in assay [1] (setting [4]) lay within 4.6 to 140 nM; in assay [1] (setting [5]), 29 to 91 nM; in assay [2] it was 35 to 120 nM.
On to `O=C(CC1CCN(c2ccccn2)CC1)N1CCC([C@H]2c3ncc(Br)cc3CCc3cc(Cl)cc(Br)c32)CC1` [Compound 5.0], for which the IC50 was 4.6 to 140 nM in assay [1] (setting [4]), 29 to 91 nM in assay [1] (setting [5]), 35 to 120 nM in assay [2] and ≥ 80 nM in assay [3].
On to `O=C(CC1CCN(c2ncccn2)CC1)N1CCC([C@H]2c3ncc(Br)cc3CCc3cc(Cl)cc(Br)c32)CC1` [Compound 6.0], for which the IC50 in assay [1] (setting [4]) was 4.6 to 140 nM; in assay [2], 35 to 120 nM.
In the case of `CC(=O)OC[C@H]1O[C@@H](N2CCC(CC(=O)N3CCC([C@H]4c5ncc(Br)cc5CCc5cc(Cl)cc(Br)c54)CC3)CC2)[C@H](OC(C)=O)[C@@H](OC(C)=O)[C@@H]1OC(C)=O` [Compound 9.3, (+) -4-(3,10-dibromo-8-chloro-6,11-dihydro-5H-benzo[5,6]cyclohepta[1,2-b]pyridin-11-yl)-1-[[1-[2,3,4,6-tetra-O-acetyl-1-beta-D-glucopyranosyl]-4-piperidinyl]acetyl]piperidine], the IC50 in assay [1] (setting [4]) is 4.6 to 140 nM; in assay [1] (setting [5]) it was 29 to 91 nM; in assay [2], 35 to 120 nM; in assay [3], ≥ 80 nM.

Values taken from patent publication EP0929545B1, “TRICYCLIC INHIBITORS OF FARNESYL PROTEIN TRANSFERASE” (SCHERING CORPORATION, priority 1996, dated 1998).
